{"source": "patent US9914910B2", "about": "“Methods of preserving and protecting pancreatic beta cells and treating or preventing diabetes by inhibiting NOX-1” (Eastern Virginia Medical School, priority 2013, dated 2018)", "key": {"[1]": {"system": "INS-1 cells", "test": "Apoptosis by YO-PRO-1 fluorescence microscopy after PIC", "type": "cell-based, rat", "details": "INS-1, PIC 24 hours, p<0.001", "protocol": "(§1) B. Fluorescence microscopy: Stimulated cells or islets were washed in cold PBS, and incubated for 30 mins at 40 C with cold PBS containing 1 μg/mL propidium iodide and 0.1 μM YO-PRO-1 (Life Technologies). For cell lines, five randomly fields per well were analyzed. For islets, all islets (>1000 um2 in size) were analyzed. Densitometric fluorescent value for YO-PRO-1 (green channel) was normalized to background and expressed proportional to cell occupied area (phase contrast). Images captured across three channels with Axiophot (Zeiss, Jena, Germany) with Axiovision (Zeiss) image analysis."}, "[2]": {"system": "NOX-1 gene expression in primary mouse islets", "test": "PIC-induced NOX-1 gene expression (RT-PCR)", "type": "cell-based", "source_text": "Human donor islets were obtained from integrated islet distribution project (http://iidp.coh.org) and cultured in CMRL media (Mediatech, Manassas, Va.). Mouse islets were freshly isolated from 8-week old male C57BL/6J mice (Jackson Laboratory, Bar Harbor, Me.) by common bile duct cannulation and collagenase digestion. Islets were hand picked prior to use. […] Total RNA was isolated using the RNeasy Mini Kit (Qiagen, Valencia, Calif.) and cDNA prepared using MMLV reverse transcriptase (Life Technologies) and random hexamers (Life Technologies). Jump Start Taq polymerase (Life Technologies) was used in PCR reactions. Primers used with SYBR Green 1 (Molecular Probes, Carlsbad, Calif.) probes: […] GAPDH forward [NT] ID NO: 3); GAPDH reverse [NT] NO: 4). RT-PCR reactions were performed in triplicate (CFX96 Bio-Rad, Hercules, Calif.). Taqman primers (Life Technologies) were also used."}, "[3]": {"system": "primary mouse islets", "test": "Apoptosis by YO-PRO-1 fluorescence microscopy after PIC", "type": "cell-based", "protocol": "(§2) Human donor islets were obtained from integrated islet distribution project (http://iidp.coh.org) and cultured in CMRL media (Mediatech, Manassas, Va.). Mouse islets were freshly isolated from 8-week old male C57BL/6J mice (Jackson Laboratory, Bar Harbor, Me.) by common bile duct cannulation and collagenase digestion. Islets were hand picked prior to use.\nas §1\nFIG. 1: Treatment of primary mouse islets with inflammatory cytokines (TNFα, IL-1β, IFNγ) induces islet/beta cell death (apoptosis) which can be measured in a fluorescent-based assay (green signal) using YO-PRO-1. […] The degree of cell death can be quantified by measuring the green signal. The graph is a quantitative analysis of multiple (≧4 visual fields in replicate wells). The detected relative fluorescent units (RFU) are plotted. […]"}, "[4]": {"system": "human colon cancer cells", "details": "cited from earlier work"}, "[5]": {"system": "βTC-3 cells", "test": "Glucose-stimulated insulin secretion (GSIS) after PIC", "type": "cell-based, mouse", "details": "βTC-3, 1 mM vs 16 mM glucose, p<0.01", "protocol": "(§3) Treated islets or cells then were washed with PBS and placed in 1 mL serum-free Kreb-Ringer buffer (115 mM NaCl, 24 mM NaHCO3, 5 mM KCl, 1 mM MgCl2, and 25 mM HEPES) for 1 hour at 370 C. Low (1 mM) or high (16 mM) glucose was added for […] for 30 min. Insulin levels in media were measured by ELISA (Mercodia, Winston Salem, N.C.) as per the manufacturer's instructions."}, "[6]": {"system": "primary mouse islets", "test": "Glucose-stimulated insulin secretion (GSIS) after PIC", "type": "cell-based", "details": "10 μM ML171, 1 mM vs 16 mM glucose", "protocol": "as §2, §3"}, "[7]": {"system": "INS-1 cells", "test": "Glucose-stimulated insulin secretion (GSIS) after PIC", "type": "cell-based, rat", "details": "INS-1, 1 mM vs 16 mM glucose, p<0.05", "protocol": "as §3\nFIG. 4: Treatment of homogeneous rat beta cell line (INS-1) with pro-inflammatory cytokines (PIC) (TNFα, IL-1β, IFNγ) disrupts beta cell function measured by glucose-stimulated-insulin-secretion. Control (non cytokine-treated) cells respond to glucose elevation ([…]) by increasing insulin secretion. Insulin levels are plotted. In the presence of inflammatory cytokines (PIC) this response is lost and the dysfunctional cells ‘leak’ insulin. […] (*p<0.05, **p<0.01)."}, "[8]": {"system": "primary mouse islets", "test": "Caspase-3 assay (pro-caspase-3 cleavage) after PIC", "type": "cell-based", "details": "4 hours, up to", "protocol": "as §2\nA. Caspase-3 Assay: Pro-caspase-3 cleavage was measured using a caspase-3 Assay kit (BD Pharmigen, Franklin Lakes, N.J.) per the manufacturer's instructions; fluorescence being measured (SpectraMax, Molecular Devices, Sunnyvale, Calif.) at excitation 380 nm and emission 440 nm (INS-1) or 460 nm (βTC-3, mouse)."}, "[9]": {"system": "NOX-1 gene expression in INS-1 cells", "test": "PIC-induced NOX-1 gene expression (RT-PCR)", "type": "cell-based, rat", "details": "INS-1, PIC 24 hours", "protocol": "Total RNA was isolated using the RNeasy Mini Kit (Qiagen, Valencia, Calif.) and cDNA prepared using MMLV reverse transcriptase (Life Technologies) and random hexamers (Life Technologies). Jump Start Taq polymerase (Life Technologies) was used in PCR reactions. […] RT-PCR reactions were performed in triplicate (CFX96 Bio-Rad, Hercules, Calif.). Taqman primers (Life Technologies) were also used. Data was normalized to the housekeeping gene GAPDH and analyzed using the 2-ΔΔCT method."}, "[10]": {"system": "primary human donor islets", "test": "Apoptosis by YO-PRO-1 fluorescence microscopy after PIC", "type": "cell-based", "details": "10 μM ML171", "protocol": "as §2, §1"}, "[11]": {"system": "βTC-3 cells", "test": "ROS measurement (DCF-DA) after PIC", "type": "cell-based, mouse", "details": "βTC-3, PIC 1 hour", "protocol": "βTC-3 cells were cultured in DMEM media (Life Technologies, Grand Island, N.Y.) supplemented with 18% fetal calf serum, 1% penicillin/streptomycin, 4 mM L-glutamine, 5.5 mM glucose, and 1 mM sodium pyruvate at 370 C with 5% CO2.\nCells treated for 1 hour were then washed with PBS prior to addition of 10 μM 6-Carboxy-2′,7′-Dichlorodihydrofluorescein Diacetate, Di(Acetoxymethyl ester) (DCF-DA, Life Technologies) for 30 min at 370 C. Post PBS wash cells were incubated at 370 C for 1 hour. Prior to fluorescence measurement (SpectraMax Molecular Devices, Sunnyvale, Calif.) at excitation 480 nm: emission 530 nm.\nElevation of cellular ROS in beta-cell lines INS-1 (rat beta-cell line) and βTC-3 (mouse beta-cell line) was evaluated by conversion of fluorescent substrate DCF-DA. Following one hour stimulation with a pro-inflammatory cytokine cocktail (PIC; IL-1β, TNF-α, and IFN-γ) detectable ROS elevated from control levels of 0.05±0.02 and 0.09±0.03 (INS-1 and βTC-3 respectively) to 0.25±0.04 and 0.23±0.03 (INS-1 and βTC-3 respectively). This increase was significant p<0.05 and p<0.01 (INS-1 and βTC-3 respectively)."}}, "data": [{"smiles": "CC(=O)c1ccc2c(c1)Nc1ccccc1S2", "note": "[ML171, 2-acetylphenothiazine]", "values": [{"measurement": "PIC-induced apoptosis (YO-PRO-1)", "setting": "[1]", "result": "apoptosis was significantly decreased"}, {"measurement": "inhibition of PIC-induced expression of NOX-1", "setting": "[2]; 1 μM, 24 hours", "result": 84, "unit": "%"}, {"measurement": "induction of gene NOX-1 by PIC", "setting": "[2]; NCTT-1 100 nM, ML171 1 μM", "result": "attenuated"}, {"measurement": "cytokine induced cell death (YO-PRO-1 RFU)", "setting": "[3]; 1 μM, p<0.05", "result": "protected islets from cytokine induced cell death"}, {"measurement": "reduction of PIC induced islet apoptosis", "setting": "[3]; 10 μM, 24 hours", "result": "86%±4%"}, {"measurement": "NOX-1 activity in human colon cancer cells", "setting": "[4]", "result": "inhibits NOX-1 activity"}, {"measurement": "glucose-stimulated insulin secretion with PIC", "setting": "[5]", "result": "restoring the glucose-sensitive insulin response"}, {"measurement": "glucose stimulated insulin response with PIC", "setting": "[6]", "result": "partially restored"}, {"measurement": "glucose-stimulated insulin secretion with PIC", "setting": "[7]", "result": "restoring the glucose-sensitive insulin response"}, {"measurement": "block of PIC-induced activation of caspase-3", "setting": "[8]; 1 μM", "result": "up to 100%±7%"}, {"measurement": "block of PIC-induced activation of caspase-3", "setting": "[8]; 10 μM", "result": "≤ 100%±3%"}, {"measurement": "inhibition of PIC-induced expression of NOX-1 gene", "setting": "[9]", "result": 33, "unit": "%"}, {"measurement": "reduction of beta-cell apoptosis induced by PICs", "setting": "[10]", "result": "30%±3%"}, {"measurement": "inhibition of PIC-induced ROS (DCFDA conversion)", "setting": "[11]", "result": "dose dependent inhibition"}]}]}
